# Experimental data as given in patent US8541572B2.
# Test system: TNF-α production in LPS-stimulated human whole blood
# Assay: Inhibition of TNF-α production from human whole blood (hWBA)
# Assay type: cell-based
# Details: Homo sapiens, IC50 for TNF-α production, LPS-stimulated human whole blood; read-out: hWBA
row,Structure (SMILES),IC50
1,COc1ccc2c(c1)C(=O)N(C[C@@]1(C#Cc3ccc(C(=NO)N4CCN(C5CCCCCC5)CC4)cc3)NC(=O)NC1=O)C2 [Compound 927],151 nM
2,COc1ccc2c(c1)C(=O)N(C[C@@]1(C#Cc3ccc(C(=NO)N4CCN(C)CC4)cc3)NC(=O)NC1=O)C2 [Compound 943],65 nM
3,CCN1CCN(C(=NO)c2ccc(C#C[C@]3(CN4Cc5ccc(OC)cc5C4=O)NC(=O)NC3=O)cc2)CC1 [Compound 911],20 nM
4,COc1ccc2c(c1)C(=O)N(C[C@@]1(C#Cc3ccc4c(c3)C(C)Oc3cccnc3-4)NC(=O)NC1=O)C2 (stereo partly shown) [Compound 929],3550 nM

# Next, values leading:
row,IC50,Structure (SMILES)
1,1390 nM,COc1ccc2c(c1)C(=O)N(C[C@@]1(C#Cc3ccc(N4CCCCC4=O)cc3)NC(=O)NC1=O)C2 [Compound 2295]
2,1000 nM,COc1ccc2c(c1)C(=O)N(C[C@@]1(C#Cc3ccc(CC4(C)NC(=O)NC4=O)cc3)NC(=O)NC1=O)C2 (stereo partly shown) [Compound 2281]
3,348 nM,COc1ccc2c(c1)C(=O)N(C[C@@]1(C#Cc3ccc(N4CCC5(CC4)NC(=O)NC5=O)nc3)NC(=O)NC1=O)C2 [Compound 2311]
4,2110 nM,COc1ccc2c(c1)C(=O)N(C[C@@]1(C#Cc3cccnc3-c3cccnc3)NC(=O)NC1=O)C2 [Compound 2270]

# Same assay, conditions: Homo sapiens, IC50 for inhibition of TNF-α production, LPS-stimulated human whole blood; read-out: hWBA
row,Structure (SMILES),IC50
1,COc1ccc2c(c1)C(=O)N(C[C@@]1(C#Cc3ccc(-n4cncn4)cc3)NC(=O)NC1=O)C2 [Compound 1170],1140 nM
2,COc1ccc2c(c1F)C(=O)N(C[C@]1(C#Cc3ccc(CN4CCN(C5CCCCC5)CC4)cc3)NC(=O)NC1=O)C2 [Compound 985],100000 nM
3,COc1ccc2c(c1)C(=O)N(C[C@@]1(C#Cc3ccc(C4=NCCN4)c(C)c3)NC(=O)NC1=O)C2 [Compound 1140],504 nM
4,CCN1CCN(C(=O)c2ccc(C#C[C@]3(CN4Cc5ccc(OC)cc5C4=O)NC(=O)NC3=O)cc2)CC1 [Compound 960],446 nM

# Other lines, results leading:
row,IC50,Structure (SMILES)
1,1200 nM,COc1ccc2c(c1)C(=O)N(C[C@@]1(C#Cc3ccc(C(c4ccc[nH]4)c4ccc[nH]4)cc3)NC(=O)NC1=O)C2 [Compound 2201]
2,1170 nM,COc1ccc(N2CCC2=O)nc1C#C[C@]1(CN2Cc3ccc(OC)c(F)c3C2=O)NC(=O)NC1=O [Compound 1508]
3,258 nM,COc1ccc2c(c1)C(=O)N(C[C@@]1(C#Cc3ccc(-n4c(-c5cccnc5)n[nH]c4=O)cc3)NC(=O)NC1=O)C2 [Compound 1916]
4,1130 nM,COc1ccc2c(c1)C(=O)N(C[C@@]1(C#Cc3cnc(C)nc3O)NC(=O)NC1=O)C2 [Compound 2231]

# Same assay, conditions: IC50 for TNF-α production, LPS-stimulated human whole blood; read-out: hWBA
row,Structure (SMILES),IC50
1,COc1ccc2c(c1)C(=O)N(C[C@@]1(C#Cc3ccc(C(=NO)N4CCN(C)CC4)s3)NC(=O)NC1=O)C2 [Compound 951],220 nM
2,COc1ccc2c(c1)C(=O)N(C[C@@]1(C#Cc3ccc(/C=N\Nc4ccccc4)cc3)NC(=O)NC1=O)C2 [Compound 935],1220 nM
3,COc1ccc2c(c1)C(=O)N(C[C@@]1(C#Cc3cccc(C(=NO)N4CCN(C)CC4)c3)NC(=O)NC1=O)C2 [Compound 915],221 nM
4,COc1ccc2c(c1)C(=O)N(C[C@@]1(C#Cc3ccc(C(=NO)N4CCC4)cc3)NC(=O)NC1=O)C2 [Compound 914],186 nM
5,COc1ccc2c(c1)C(=O)N(C[C@@]1(C#Cc3ccc(-c4ccccc4O)cc3)NC(=O)NC1=O)C2 [Compound 955],652 nM
6,COc1ccc2c(c1)C(=O)N(C[C@@]1(C#Cc3ccc(C4(C)NC(=O)NC4=O)s3)NC(=O)NC1=O)C2 (stereo partly shown) [Compound 907],208 nM
7,COc1ccc2c(c1)C(=O)N(C[C@@]1(C#Cc3cnc(N)c(C(=O)NS(C)(=O)=O)c3)NC(=O)NC1=O)C2 [Compound 904],10000 nM
8,COc1ccc2c(c1)C(=O)N(C[C@@]1(C#Cc3ccc(C(=NO)N4CCCN(C)CC4)cc3)NC(=O)NC1=O)C2 [Compound 913],45 nM
9,CCCCN1CCN(C(=NO)c2ccc(C#C[C@]3(CN4Cc5ccc(OC)cc5C4=O)NC(=O)NC3=O)cc2)CC1 [Compound 925],74 nM
10,CCN1CCN(C(=NO)c2ccc(C#C[C@]3(CN4Cc5ccc(OC)cc5C4=O)NC(=O)NC3=O)cn2)CC1 [Compound 954],87 nM

# Further lines, results first:
row,IC50,Structure (SMILES)
1,84 nM,COc1ccc2c(c1)C(=O)N(C[C@@]1(C#Cc3ccc(C(=NO)N4CCNC[C@@H]4C)cc3)NC(=O)NC1=O)C2 [Compound 2293]
2,443 nM,CNC(=O)C1(c2ccc(C#C[C@]3(CN4Cc5ccc(OC)cc5C4=O)NC(=O)NC3=O)cc2)CC1 [Compound 2261]
3,261 nM,COc1ccc2c(c1)CCN(C[C@@]1(C#Cc3ccc(C(=NO)N4CCN(C)CC4)cc3)NC(=O)NC1=O)C2=O [Compound 2320]

# Same assay, conditions: IC50 for inhibition of TNF-α production, LPS-stimulated human whole blood; read-out: hWBA
row,Structure (SMILES),IC50
1,COc1ccc2c(c1)C(=O)N(C[C@@]1(C#Cc3ccc4c(CN(C)C)n[nH]c4c3)NC(=O)NC1=O)C2 [Compound 728],163 nM
2,COc1ccc2c(c1F)C(=O)N(C[C@@]1(C#Cc3ccc(-c4cccc(N5CCN(C6CCCCC6)CC5)n4)cc3)NC(=O)NC1=O)C2 [Compound 993],856 nM
3,COc1ccc2c(c1F)C(=O)N(C[C@@]1(C#Cc3ccc(-c4nc(N5CCC(=O)CC5)ccc4O)cc3)NC(=O)NC1=O)C2 [Compound 1003],124 nM
4,COc1ccc2c(c1)C(=O)N(C[C@@]1(C#Cc3ccc(Nc4c(NCCN5CCOCC5)c(=O)c4=O)cc3)NC(=O)NC1=O)C2 [Compound 1306],169 nM
5,COc1ccc2c(c1)C(=O)N(C[C@@]1(C#Cc3ccc(-c4cccc(C)c4O)nc3)NC(=O)NC1=O)C2 [Compound 1300],3500 nM
6,COc1ccc2c(c1)C(=O)N(C[C@@]1(C#Cc3ccc(CC4CCN(C)CC4)nc3)NC(=O)NC1=O)C2 [Compound 739],195 nM
7,COc1ccc2c(c1F)C(=O)N(C[C@@]1(C#Cc3ccc4c(c3)C3(CC4)NC(=O)NC3=O)NC(=O)NC1=O)C2 (stereo partly shown) [Compound 1304],367 nM
8,COc1ccc2c(c1)C(=O)N(C[C@@]1(C#Cc3ccc(-c4nc(-c5cccnc5)ccc4OC(C)=O)cc3)NC(=O)NC1=O)C2 [Compound 975],61.6 nM
9,COc1ccc2c(c1)C(=O)N(C[C@@]1(C#Cc3ccc(C(=O)N4CCN(C5CCCCC5)CC4)cc3)NC(=O)NC1=O)C2 [Compound 962],578 nM
10,CCN1CCN(c2cccc(-c3ccc(C#C[C@]4(CN5Cc6ccc(OC)c(F)c6C5=O)NC(=O)NC4=O)cc3)n2)CC1 [Compound 991],606 nM
11,COc1ccc2c(c1F)C(=O)N(C[C@@]1(C#Cc3ccc(-c4nc(-c5cnn(C)c5)ccc4O)c(F)c3)NC(=O)NC1=O)C2 [Compound 987],75.4 nM
12,COc1ccc2c(c1)C(=O)N(C[C@@]1(C#Cc3ccc(-c4nc(-c5cccnc5)ccc4O)cc3)NC(=O)NC1=O)C2 [Compound 971],80.2 nM
13,COc1ccc2c(c1)C(=O)N(C[C@@]1(C#Cc3ccc(-c4nc(-c5ccncc5)ccc4O)cc3)NC(=O)NC1=O)C2 [Compound 970],65 nM
14,CCN1CCN(/C(=N\O)c2ccc(C#C[C@]3(CN4Cc5ccc(OC)c(F)c5C4=O)NC(=O)NC3=O)cc2F)[C@@H](C)C1 [Compound 1311],69 nM
15,COc1ccc2c(c1)C(=O)N(C[C@@]1(C#Cc3ccc4c(c3)c(O)nn4C)NC(=O)NC1=O)C2 [Compound 712],1530 nM
16,COc1ccc2c(c1F)C(=O)N(C[C@@]1(C#Cc3ccc(-c4cccc(N5CCSCC5)n4)cc3)NC(=O)NC1=O)C2 [Compound 999],4150 nM
17,CCN1CCN(Cc2ccc(C#C[C@]3(CN4Cc5ccc(OC)cc5C4=O)NC(=O)NC3=O)cn2)CC1 [Compound 977],782 nM
18,COc1ccc2c(c1F)C(=O)N(C[C@@]1(C#Cc3ccc(/C(=N/O)N4CCNC[C@@H]4C)c(F)c3)NC(=O)NC1=O)C2 [Compound 1309],42 nM
19,COc1ccc2c(c1)C(=O)N(C[C@@]1(C#Cc3ccc4c(O)nn(C)c4c3)NC(=O)NC1=O)C2 [Compound 715],456 nM
20,COc1ccc2c(c1F)C(=O)N(C[C@@]1(C#Cc3ccc(CN4CCN(c5ccncc5)CC4)nc3)NC(=O)NC1=O)C2 [Compound 979],228 nM

# The remaining lines, values ahead:
row,IC50,Structure (SMILES)
1,40 nM,COc1ccc2c(c1)C(=O)N(C[C@@]1(C#Cc3ccc(C(=NO)C4CCN(C)CC4)cc3)NC(=O)NC1=O)C2 [Compound 2246]
2,152 nM,CCN1CCN(C(=O)C2CCC(=O)N2c2ccc(C#C[C@]3(CN4Cc5ccc(OC)c(F)c5C4=O)NC(=O)NC3=O)cc2)CC1 (stereo partly shown) [Compound 1903]
3,2050 nM,COc1ccc2c(c1)C(=O)N(C[C@@]1(C#Cc3nc(-c4ccc(N5CCNCC5)nc4)ccc3OC)NC(=O)NC1=O)C2 [Compound 1511]
4,444 nM,COc1ccc2c(c1)C(=O)N(C[C@@]1(C#Cc3cncc(NC(C)=O)c3)NC(=O)NC1=O)C2 [Compound 2242]
5,5710 nM,COCCN1CCN(c2ccc(OC)c(C#C[C@]3(CN4Cc5ccc(OC)cc5C4=O)NC(=O)NC3=O)n2)CC1 [Compound 1507]
6,1140 nM,COc1ccc2c(c1)C(=O)N(C[C@@]1(C#Cc3ccc(-n4cncn4)cc3)NC(=O)NC1=O)C2 [Compound 2228]
7,811 nM,COc1ccc2c(c1)C(=O)N(C[C@@]1(C#Cc3cncc(-c4csc(N)n4)c3)NC(=O)NC1=O)C2 [Compound 2233]
8,9910 nM,COc1ccc2c(c1)C(=O)N(C[C@@]1(C#Cc3nc(-c4cccc(O)c4)ccc3OC)NC(=O)NC1=O)C2 [Compound 1922]
9,118 nM,COc1ccc2c(c1F)C(=O)N(C[C@@]1(C#Cc3ccc(N4CCNCC4)cc3)NC(=O)NC1=O)C2 [Compound 1706]
10,7270 nM,COc1ccc2c(c1)C(=O)N(C[C@@]1(C#Cc3nc(N4CCN(c5ccncc5)CC4)ccc3OC)NC(=O)NC1=O)C2 [Compound 2205]
11,578 nM,COc1ccc2c(c1)C(=O)N(C[C@@]1(C#Cc3ccc(N4C(=O)CCC4(C(=O)O)C(C)(C)O)nc3)NC(=O)NC1=O)C2 (stereo partly shown) [Compound 1906]
12,361 nM,COc1ccc2c(c1)C(=O)N(C[C@@]1(C#Cc3cncc(-c4ccc(C(N)=O)cc4)c3)NC(=O)NC1=O)C2 [Compound 2208]
13,244 nM,COc1ccc2c(c1)C(=O)N(C[C@@]1(C#Cc3ccc(-c4nnc(N)o4)cc3)NC(=O)NC1=O)C2 [Compound 1919]
14,422 nM,CCN1CCN(c2n[nH]c3ccc(C#C[C@]4(CN5Cc6ccc(OC)cc6C5=O)NC(=O)NC4=O)cc23)CC1 [Compound 2238]
15,227 nM,COc1ccc2c(c1)C(=O)N(C[C@@]1(C#Cc3ccc(C4=NCCN4)cc3)NC(=O)NC1=O)C2 [Compound 2222]
